These results are taken from ChEMBL document CHEMBL3132800, “Identification of novel inhibitors of p53MDM2 interaction facilitated by pharmacophore-based virtual screening combining molecular docking strategy” (Medchemcomm, 2013).

Test [1] has as its system HCT-116. Briefly: Cytotoxicity against human HCT116 cells after 72 hrs by SRB assay. The class given is functional, cell-based. The following applies: HCT-116, 72 h. On the technique in general: The SRB assay estimates cell density from bound dye.
Another test has as its system SJSA-1. Briefly: Cytotoxicity against human SJSA1 cells after 72 hrs by SRB assay. The following applies: SJSA-1, 72 h. The class given is functional, cell-based.
The next test relates to SW-620. Briefly: Cytotoxicity against human SW620 cells after 72 hrs by SRB assay. Conditions: SW-620, 72 h. The class given is functional, cell-based.
In test [2] the target is Tumour suppressor p53/oncoprotein Mdm2 (Homo sapiens, UniProt Q00987). Briefly: Inhibition of p53-MDM2 (1 to 118 residues) interaction (unknown origin) expressed in Escherichia coli BL-21 (DE3) assessed as inhibition of MDM2 binding by fluorescence polarization competitive binding assay.
Tumour suppressor p53/oncoprotein Mdm2, sequence (P04637 whole entry, the tested form may be a part): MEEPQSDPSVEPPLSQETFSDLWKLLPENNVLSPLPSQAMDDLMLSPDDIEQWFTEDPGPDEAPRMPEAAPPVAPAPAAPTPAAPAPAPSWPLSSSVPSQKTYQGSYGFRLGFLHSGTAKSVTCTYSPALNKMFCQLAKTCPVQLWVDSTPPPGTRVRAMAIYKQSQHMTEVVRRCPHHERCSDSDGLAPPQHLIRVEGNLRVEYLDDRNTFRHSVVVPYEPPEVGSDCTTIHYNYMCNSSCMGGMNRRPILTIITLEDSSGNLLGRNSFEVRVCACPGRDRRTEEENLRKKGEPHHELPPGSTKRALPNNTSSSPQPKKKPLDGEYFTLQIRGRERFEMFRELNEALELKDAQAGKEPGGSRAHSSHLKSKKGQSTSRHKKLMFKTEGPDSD
Tumour suppressor p53/oncoprotein Mdm2, sequence (Q00987 whole entry, the tested form may be a part): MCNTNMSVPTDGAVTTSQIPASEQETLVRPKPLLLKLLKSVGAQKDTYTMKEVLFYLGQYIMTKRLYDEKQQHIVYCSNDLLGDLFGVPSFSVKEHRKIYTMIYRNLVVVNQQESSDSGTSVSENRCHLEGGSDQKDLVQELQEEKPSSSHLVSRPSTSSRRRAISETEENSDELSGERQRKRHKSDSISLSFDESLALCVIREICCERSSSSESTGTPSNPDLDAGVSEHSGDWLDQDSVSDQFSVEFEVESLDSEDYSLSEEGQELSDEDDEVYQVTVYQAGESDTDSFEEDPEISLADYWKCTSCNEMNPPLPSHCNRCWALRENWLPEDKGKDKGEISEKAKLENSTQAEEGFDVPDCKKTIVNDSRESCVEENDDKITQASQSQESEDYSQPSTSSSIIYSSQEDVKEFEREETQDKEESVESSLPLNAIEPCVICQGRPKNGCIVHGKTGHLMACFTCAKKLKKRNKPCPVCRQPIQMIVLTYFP
Test [3] relates to HCT-116. Briefly: Cytotoxicity against human HCT116 cells after 72 hrs by SRB assay relative to Nutlin-3. The class given is functional.
The subject of the next test is A549. The test is described as follows: Cytotoxicity against human A549 cells after 72 hrs by SRB assay. Conditions: A549, 72 h. It counts as functional, cell-based.
In another test the test system is PC-3. Briefly: Cytotoxicity against human PC3 cells after 72 hrs by SRB assay. It counts as functional, cell-based. Conditions: PC-3, 72 h.

The term IC50 denotes the midpoint of a concentration-inhibition curve. Regarding `Nc1sc(-c2ccc(Cl)cc2)c(-c2ccc(Cl)cc2)c1C(=O)NC1CC1`, the half-maximal inhibitory concentration (IC50) amounted to 240 nM in the test with HCT-116 [1], 31.9 µM with SJSA-1, 1.74 µM with SW-620 and 2080 nM in test [2]. Further, in the test with HCT-116 [3], the “Ratio IC50” value is recorded as 1.3.
In the case of `Nc1sc(-c2ccc(Cl)cc2)c(-c2ccc(Cl)cc2)c1C(=O)Nc1ccccc1`, the IC50 in the test with HCT-116 [1] was 14500 nM; in the test on SJSA-1, greater than 500 µM; in the test with SW-620, 39.7 µM; in test [2] it was greater than 50000 nM.
`COC(=O)c1c(N)sc(-c2ccc(Cl)cc2)c1-c1ccc(Cl)cc1`: the half-maximal inhibitory concentration (IC50) in the test with HCT-116 [1] was determined as 1660 nM; with SJSA-1 it was 40.9 µM; with SW-620, 3.23 µM; in test [2], 4230 nM. The “Ratio IC50” value in the test with HCT-116 [3] stood at 1.3.
In the case of `COc1ccc(C2=NC(c3ccc(Cl)cc3)C(c3ccc(Cl)cc3)N2C(=O)N2CCNC(=O)C2)c(OC(C)C)c1` (racemic), the IC50 turned out to be 410 nM in the test on A549; 4630 nM with HCT-116 [1]; 1.81 µM in the test on SJSA-1; 0.38 µM in the test on SW-620; 6.37 µM in the test with PC-3.
For `Nc1sc(-c2ccc(Cl)cc2)c(-c2ccc(Cl)cc2)c1C(=O)N1CCCC1`, the 50% inhibitory concentration (IC50) in the test on HCT-116 [1] amounted to 3630 nM; in the test on SJSA-1 it was 17.6 µM; in the test with SW-620 it was 3.87 µM; in test [2], 2840 nM. Further, in the test on HCT-116 [3], the “Ratio IC50” value turned out to be 1.3.
The matching figures for `Nc1sc(-c2ccc(Cl)cc2)c(-c2ccc(Cl)cc2)c1C(=O)NC1CCCCC1`: 590 nM, 102 µM, 3.07 µM, 900 nM and 1.3.
